Assay results: US8741852B2, “Peptides having antimicrobial activity” (Universiti Malaya, priority 2012, dated 2014)
Read-outs that look alike come from different tables or passages of the source. No end group written: not given here.

Assays:
[1] = test system: penicilin-intermediate pneumococci
From the text: (§1) The antimicrobial peptides are thereafter tested using broth microdilution assay 5×10^5 cfu/ml against a total of 60 pneumococcal isolates (20 isolates for each penicillin-susceptible, -intermediate, and -resistant pneumococci) to determine their minimum inhibitory concentration (MIC).

[2] = test system: penicilin-susceptible pneumococci
From the text: as §1

[3] = test system: penicillin-resistant pneumococci
From the text: as §1

Streptococcus pneumoniae = assay: MIC by broth microdilution against all 60 pneumococcal isolates (overall); type: cell-based
From the text: as §1

S. aureus = type: cell-based, Staphylococcus aureus
Protocol: (§2) Apart from Streptococcus pneumonia, the antimicrobial peptides are also tested for antimicrobial activity against eight common bacterial pathogens of both gram-types as shown in Table 2. […] Testing against the gram-negative Acinetobacter baumannii (31.25 μg/ml) and Citrobacter spp.

E. coli = type: cell-based, Escherichia coli
Protocol: as §2

A. baumannii = type: cell-based, Acinetobacter baumannii
Protocol: as §2

E. cloacae = test system: E. cloacae
Protocol: as §2

K. pneumoniae = type: cell-based, Klebsiella pneumoniae
Protocol: as §2

Citrobacter spp. = type: cell-based
Protocol: as §2

[4] = test system: eight common bacterial pathogens of both gram-types; type: cell-based
Protocol: as §2

bacterial pathogens = assay: Spectrum of antibacterial activity (summary in words); type: cell-based; conditions: against Streptococcus pneumoniae, Acinetobacter baumannii, Staphylococcus aureus, methicillin-resistant Staphylococcus aureus, Escherichia coli, Citrobacter spp.
P. aeruginosa = type: cell-based, Pseudomonas aeruginosa
Protocol: as §2

[5] = Pseudomonas aeruginosa, Enterococcus cloacae, Klebsiella pneumoniae
[6] = Pseudomonas aeruginosa, Enterococcus cloacae

Substance	EP (effective percentage, isolates inhibited within the effective range) [1]	ER (effective range of minimum inhibitory concentration) [1]	EP (effective percentage, isolates inhibited within the effective range) [2]	ER (effective range of minimum inhibitory concentration) [2]	EP (effective percentage, isolates inhibited within the effective range) [3]	ER (effective range of minimum inhibitory concentration) [3]	Overall EP (Streptococcus pneumoniae)	MIC (S. aureus)	MIC (E. cloacae)	MIC (K. pneumoniae)	MIC (Citrobacter spp.)	antimicrobial activity (bacterial pathogens; [5])	antimicrobial activity (bacterial pathogens; [6])	further results
GLFDIWAWWRWRR-NH2 (C-terminus assumed) [SEQ ID NO:2, Gly-Leu-Phe-Asp-Ile-Trp-Ala-Trp-Trp-Arg-Trp-Arg-Arg]	100%	7.81 to 250 µg/mL	100%	15.63 to 250 µg/mL	100%	15.63 to 250 µg/mL	100%	31.25 µg/mL	>250 µg/mL	>250 µg/mL				MIC level against Staphylococcus aureus as compared to methicillin-resistant Staphylococcus aureus (S. aureus): two fold lower; MIC (E. coli; Gram-negative): 250 µg/mL; MIC (A. baumannii; Gram-negative): 31.25 µg/mL; MIC (Citrobacter spp.; Gram-negative): 62.5 µg/mL; activity against the other bacteria ([4]; bacteria of Table 2 other than S. aureus, MRSA, A. baumannii, Citrobacter spp., E. coli): non-active; antimicrobial activity (bacterial pathogens): has antimicrobial activity
GLFDIWKKLRWRR-NH2 (C-terminus assumed) [SEQ ID NO:5, Gly-Leu-Phe-Asp-Ile-Trp-Lys-Lys-Leu-Arg-Trp-Arg-Arg]	100%	15.63 to 125 µg/mL	100%	15.63 to 125 µg/mL	100%	31.25 to 125 µg/mL	100%	125 µg/mL	125 µg/mL	250 µg/mL	31.25 µg/mL	have antimicrobial activity		MIC (E. coli): 31.25 µg/mL; MIC (P. aeruginosa): 31.25 µg/mL; MIC (A. baumannii): 31.25 µg/mL; range of minimum inhibitory concentrations [4]: 31.25 to 125 µg/mL
GLFDIWKKWRWRR-NH2 (C-terminus assumed) [SEQ ID NO:4, Gly-Leu-Phe-Asp-Ile-Trp-Lys-Lys-Trp-Arg-Trp-Arg-Arg]							100%						have antimicrobial activity	
GLFDIWKWWRWRR-NH2 (C-terminus assumed) [SEQ ID NO:3, Gly-Leu-Phe-Asp-Ile-Trp-Lys-Trp-Trp-Arg-Trp-Arg-Arg]	100%	7.81 to 250 µg/mL	100%	7.81 to 62.5 µg/mL	100%	15.63 to 62.5 µg/mL	100%		31.25 µg/mL	62.5 µg/mL	15.63 µg/mL	have antimicrobial activity		range of minimum inhibitory concentration [4]: 7.81 to 125 µg/mL
GLFDKWAWWRWRR-NH2 (C-terminus assumed) [SEQ ID NO:1, Gly-Leu-Phe-Asp-Lys-Trp-Ala-Trp-Trp-Arg-Trp-Arg-Arg]							100%						have antimicrobial activity	
